According to ChEMBL document CHEMBL4680094, “Insights of a Lead Optimization Study and Biological Evaluation of Novel 4-Hydroxytamoxifen Analogs as Estrogen-Related Receptor γ (ERRγ) Inverse Agonists” (J Med Chem, 2016):

Legend:
[1] = target: T1, Steroid hormone receptor ERR1 (Homo sapiens, UniProt P11474); assay: Binding affinity to GST-tagged ERRalpha LBD (unknown origin) using fluorescein PGC1alpha as coactivator incubated for 1 hr by LanthaScreen TR-FRET co-regulator assay
T1 sequence (P11474 whole entry): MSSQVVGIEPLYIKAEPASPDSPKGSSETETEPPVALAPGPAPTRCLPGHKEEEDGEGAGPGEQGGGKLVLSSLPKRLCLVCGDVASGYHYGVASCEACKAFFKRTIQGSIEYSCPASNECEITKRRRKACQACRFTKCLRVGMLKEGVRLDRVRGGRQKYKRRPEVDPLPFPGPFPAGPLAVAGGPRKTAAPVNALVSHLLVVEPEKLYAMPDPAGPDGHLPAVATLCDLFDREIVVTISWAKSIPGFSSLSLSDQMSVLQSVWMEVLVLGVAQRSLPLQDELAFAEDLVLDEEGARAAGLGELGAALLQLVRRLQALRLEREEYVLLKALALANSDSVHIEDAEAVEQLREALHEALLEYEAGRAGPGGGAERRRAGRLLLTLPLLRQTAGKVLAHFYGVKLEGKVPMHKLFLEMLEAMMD

[2] = target: T2, Estrogen-related receptor gamma (Homo sapiens, UniProt P62508)
T2 sequence (P62508 whole entry): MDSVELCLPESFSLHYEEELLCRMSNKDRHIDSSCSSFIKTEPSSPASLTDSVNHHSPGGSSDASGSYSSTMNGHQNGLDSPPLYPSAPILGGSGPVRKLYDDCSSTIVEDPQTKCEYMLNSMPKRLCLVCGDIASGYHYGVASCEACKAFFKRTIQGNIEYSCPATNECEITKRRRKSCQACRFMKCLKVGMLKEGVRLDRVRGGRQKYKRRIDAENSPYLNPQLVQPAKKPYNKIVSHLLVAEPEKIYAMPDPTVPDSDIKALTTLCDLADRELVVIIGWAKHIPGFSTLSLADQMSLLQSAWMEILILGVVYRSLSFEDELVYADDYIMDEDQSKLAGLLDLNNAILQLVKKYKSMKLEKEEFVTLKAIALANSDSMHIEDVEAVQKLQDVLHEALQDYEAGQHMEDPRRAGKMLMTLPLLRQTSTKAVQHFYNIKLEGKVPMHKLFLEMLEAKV

Estrogen receptor = target: T3, Estrogen receptor (Homo sapiens, UniProt P03372); assay: Binding affinity to GST-tagged ERalpha LBD (unknown origin) using fluorescein PGC1alpha as coactivator incubated for 1 hr by LanthaScreen TR-FRET co-regulator assay
T3 sequence (P03372 whole entry): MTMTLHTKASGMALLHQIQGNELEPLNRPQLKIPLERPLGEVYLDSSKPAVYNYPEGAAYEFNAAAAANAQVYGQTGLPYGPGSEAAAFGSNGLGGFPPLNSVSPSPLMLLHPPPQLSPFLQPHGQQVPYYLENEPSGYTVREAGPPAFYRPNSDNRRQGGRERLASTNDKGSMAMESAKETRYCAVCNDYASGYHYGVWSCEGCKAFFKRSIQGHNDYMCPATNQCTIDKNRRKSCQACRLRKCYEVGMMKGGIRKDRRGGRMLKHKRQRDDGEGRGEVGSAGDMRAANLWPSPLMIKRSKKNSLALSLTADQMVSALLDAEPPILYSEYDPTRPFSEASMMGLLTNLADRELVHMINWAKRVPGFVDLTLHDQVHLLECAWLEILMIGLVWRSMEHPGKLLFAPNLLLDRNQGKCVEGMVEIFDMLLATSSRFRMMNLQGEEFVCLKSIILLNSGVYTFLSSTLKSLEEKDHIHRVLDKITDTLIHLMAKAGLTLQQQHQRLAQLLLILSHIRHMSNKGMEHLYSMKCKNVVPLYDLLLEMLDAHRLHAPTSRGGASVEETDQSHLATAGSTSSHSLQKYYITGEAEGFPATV

[3] = target: T4, Steroid hormone receptor ERR2 (Homo sapiens, UniProt O95718); assay: Binding affinity to GST-tagged ERRbeta LBD (unknown origin) using fluorescein PGC1alpha as coactivator incubated for 1 hr by LanthaScreen TR-FRET co-regulator assay
T4 sequence (O95718 whole entry): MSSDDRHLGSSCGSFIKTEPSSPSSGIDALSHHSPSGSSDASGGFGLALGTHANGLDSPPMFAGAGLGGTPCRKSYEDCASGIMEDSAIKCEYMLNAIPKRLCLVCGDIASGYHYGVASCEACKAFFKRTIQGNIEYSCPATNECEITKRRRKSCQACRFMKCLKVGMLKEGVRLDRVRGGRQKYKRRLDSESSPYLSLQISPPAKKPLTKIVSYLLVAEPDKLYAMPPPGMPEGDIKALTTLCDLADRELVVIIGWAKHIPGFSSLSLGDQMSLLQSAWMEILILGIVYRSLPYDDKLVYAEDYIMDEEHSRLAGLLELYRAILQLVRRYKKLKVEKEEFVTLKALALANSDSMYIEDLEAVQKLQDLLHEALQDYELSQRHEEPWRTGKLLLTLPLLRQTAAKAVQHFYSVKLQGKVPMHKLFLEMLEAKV

Row | SMILES | IC50 [1] [µM] | IC50 [2] [nM] | IC50 (Estrogen receptor) [nM] | IC50 [3] [µM]
1 | OCCC/C(=C(\c1ccc(O)cc1)c1ccc(OCCN2C[C@H]3C[C@H]3[C@H]2CO)cc1)c1ccccc1 | > 10 |  |  | 
2 | OCCC/C(=C(\c1ccc(O)cc1)c1ccc(N2CCOCC2)cc1)c1ccccc1 |  | 2230 |  | 
3 | C[Si](C)(CN1CCCC1)c1ccc(/C(=C(/CCCO)c2ccccc2)c2ccc(O)cc2)cc1 | > 10 | 813 | > 10000 | > 10
4 | OCCC/C(=C(\c1ccc(O)cc1)c1ccc(OCCN2C[C@H]3CNC[C@H]3C2)cc1)c1ccccc1 | > 10 | 165 | 407 | > 10
5 | O=C(Nc1ccc(/C(=C(/CCCO)c2ccccc2)c2ccc(O)cc2)cc1)C1CCCN1 (stereo not given) |  | > 10000 |  | 
6 | OCCC/C(=C(\c1ccc(O)cc1)c1ccc2c(c1)CCN2CCN1CCCC1)c1ccccc1 |  | 8020 |  | 
7 | OCCC/C(=C(\c1ccc(O)cc1)c1ccc(OCCN2CCC[C@@H]2CO)cc1)c1ccccc1 | > 10 |  |  | > 10
8 | O=C(CN1C[C@H]2CNC[C@H]2C1)Nc1ccc(/C(=C(/CCCO)c2ccccc2)c2ccc(O)cc2)cc1 |  | 7420 |  | 
9 | CN1C[C@H]1CCCOc1ccc(/C(=C(/CCCO)c2ccccc2)c2ccc(O)cc2)cc1 (stereo not given in full) |  | 784 |  | 
10 | C[Si](C)(CN1C[C@H]2CNC[C@H]2C1)c1ccc(/C(=C(/CCCO)c2ccccc2)c2ccc(O)cc2)cc1 |  | 460 |  | 
11 | C[Si](C)(CN1CCCCC1)c1ccc(/C(=C(/CCCO)c2ccccc2)c2ccc(O)cc2)cc1 | > 10 | 248 | 4360 | > 10
12 | CN1CCN(C[Si](C)(C)c2ccc(/C(=C(/CCCO)c3ccccc3)c3ccc(O)cc3)cc2)CC1 |  | 1260 |  | 
13 | CN1CCN(CCOc2ccc(/C(=C(/CCCO)c3ccccc3)c3ccc(O)cc3)cc2)CC1 |  | 2200 |  | 
14 | O=C(CN1CCCCC1)Nc1ccc(/C(=C(/CCCO)c2ccccc2)c2ccc(O)cc2)cc1 |  | 2780 |  | 
15 | C[Si](C)(CN1CCNCC1)c1ccc(/C(=C(/CCCO)c2ccccc2)c2ccc(O)cc2)cc1 |  | 1280 |  | 
16 | CN1C[C@@H]1CCCOc1ccc(/C(=C(/CCCO)c2ccccc2)c2ccc(Br)cc2)cc1 (stereo not given in full) |  | 1660 |  | 
17 | OCCC/C(=C(\c1ccc(O)cc1)c1ccc(OCCN2CCC3(CCNC3)C2)cc1)c1ccccc1 (stereo not given) | > 10 | 326 | 5600 | > 10
18 | O=[N+]([O-])c1ccc(/C(=C(\CCCO)c2ccccc2)c2ccc(N3CCC4(CCNC4)C3)cc2)cc1 (stereo not given) |  | 8230 |  | 

Row | SMILES | IC50 [1] [µM] | IC50 [2] [nM] | IC50 (Estrogen receptor) [nM] | IC50 [3] [µM]
19 | OCCC/C(=C(\c1ccc(O)cc1)c1ccc2c(ccn2CCN2CCCCC2)c1)c1ccccc1 |  | 3610 |  | 
20 | CN1CCN(Cc2ccc(/C(=C(/CCCO)c3ccccc3)c3ccc([N+](=O)[O-])cc3)cc2)CC1 |  | > 10000 |  | 
21 | OCCC/C(=C(\c1ccc(Br)cc1)c1ccc(OCCN2CC2)cc1)c1ccccc1 |  | 1520 |  | 
22 | OCCC/C(=C(\c1ccc(O)cc1)c1ccc2oc(CCN3CCNCC3)cc2c1)c1ccccc1 |  | 894 |  | 
23 | OCCC/C(=C(\c1ccc(O)cc1)c1ccc(OCCN2CC2)cc1)c1ccccc1 | > 10 | 70 |  | 3.72
24 | CN1CCN(Cc2ccc(/C(=C(/CCCO)c3ccccc3)c3ccc(O)cc3)cc2)CC1 |  | 2340 |  | 
25 | OCCC/C(=C(\c1ccc(Br)cc1)c1ccc(CN2CCCCC2)cc1)c1ccccc1 |  | 2300 |  | 
26 | CN1CCC[C@H]1CCOc1ccc(/C(=C(/CCCO)c2ccccc2)c2ccc(O)cc2)cc1 | > 10 |  | 724 | 8.59
27 | OCCC/C(=C(\c1ccc(O)cc1)c1ccc(OCCN2CC3CC3C2)cc1)c1ccccc1 (stereo not given) | > 10 |  |  | 
28 | CN1CCC[C@@H]1CCOc1ccc(/C(=C(/CCCO)c2ccccc2)c2ccc(O)cc2)cc1 | > 10 |  | 784 | > 10
29 | OCCC/C(=C(\c1ccc(O)cc1)c1ccc(NCCN2CCCCC2)cc1)c1ccccc1 |  | 1550 |  | 
30 | OCCC/C(=C(\c1ccc(O)cc1)c1ccc2oc(CCN3CCCCC3)cc2c1)c1ccccc1 | > 10 | 268 | 660 | > 10
31 | CN(C)CCn1cc(-c2ccc(/C(=C(/CCCO)c3ccccc3)c3ccc(O)cc3)cc2)nn1 |  | 6300 |  | 
32 | CC(C)(C)OC(=O)N1CCC(n2cc(/C(=C(/CCCO)c3ccccc3)c3ccc(O)cc3)cn2)CC1 |  | > 10000 |  | 
33 | Cc1ccc(/C(=C(\CCCO)c2ccccc2)c2ccc3oc(CCN4CCNCC4)cc3c2)cc1 |  | 2130 |  | 
34 | OCCC/C(=C(\c1ccc(O)cc1)c1ccc(OCCN2CCCC2)cc1)c1ccccc1 | > 10 |  | 649 | > 10
35 | CN1C[C@@H]1CCCOc1ccc(/C(=C(/CCCO)c2ccccc2)c2ccc(O)cc2)cc1 (stereo not given in full) |  | 1090 |  | 
36 | OCCC/C(=C(\c1ccc(O)cc1)c1ccc(OCCN2CCNCC2)cc1)c1ccccc1 |  | 1040 |  | 
